ChEMBL document CHEMBL1806489, “Synthesis and biological evaluation of novel F-18 labeled pyrazolo[1,5-a]pyrimidine derivatives: potential PET imaging agents for tumor detection” (Bioorg Med Chem Lett, 2011)

What was measured:
[1] = test system: Mus musculus; test: Biodistribution in mouse S180 cells xenografted Kunming mouse tumor at 370 kBq/0.1 mL, iv after 120 mins by gamma counting; assay type: ADME, organism-based, Neoplasm, CCRF S-180; conditions: in vivo, 2 h
[2] = test system: Blood; test: Biodistribution in mouse S180 cells xenografted Kunming mouse blood at 370 kBq/0.1 mL, iv after 15 mins by gamma counting; assay type: ADME, organism-based, CCRF S-180; conditions: in vivo, 0.25 h
[3] = test system: Nucleic Acid; test: Ratio of drug level in tumor to blood in mouse S180 cells xenografted Kunming mouse at 370 kBq/0.1 mL, iv after 30 mins by gamma counting; assay type: ADME, organism-based, CCRF S-180; conditions: tumour, 0.5 h
[4] = test system: Liver; test: Biodistribution in mouse S180 cells xenografted Kunming mouse liver at 370 kBq/0.1 mL, iv after 5 mins by gamma counting; assay type: ADME, organism-based, CCRF S-180; conditions: in vivo
[5] = test system: Muscle tissue; test: Biodistribution in mouse S180 cells xenografted Kunming mouse muscle at 370 kBq/0.1 mL, iv after 120 mins by gamma counting; assay type: ADME, organism-based, CCRF S-180; conditions: in vivo, 2 h
[6] = test system: Nucleic Acid; test: Ratio of drug level in tumor to blood in mouse S180 cells xenografted Kunming mouse at 370 kBq/0.1 mL, iv after 60 mins by gamma counting; assay type: ADME, organism-based, CCRF S-180; conditions: tumour, 1 h
[7] = test system: Plasma; test: Metabolic stability in mouse plasma at 3.7 MBq after 1 to 2 hrs; assay type: ADME, cell-free
[8] = test system: Nucleic Acid; test: Ratio of drug level in tumor to muscle in mouse S180 cells xenografted Kunming mouse at 370 kBq/0.1 mL, iv after 5 mins by gamma counting; assay type: ADME, organism-based, CCRF S-180; conditions: in vivo
[9] = test system: Nucleic Acid; test: Ratio of drug level in tumor to brain in mouse S180 cells xenografted Kunming mouse at 370 kBq/0.1 mL, iv after 15 mins by gamma counting; assay type: ADME, organism-based, CCRF S-180; conditions: in vivo, 0.25 h
[10] = test system: Liver; test: Biodistribution in mouse S180 cells xenografted Kunming mouse liver at 370 kBq/0.1 mL, iv after 120 mins by gamma counting; assay type: ADME, organism-based, CCRF S-180; conditions: in vivo, 2 h
[11] = test system: Kidney; test: Biodistribution in mouse S180 cells xenografted Kunming mouse kidney at 370 kBq/0.1 mL, iv after 120 mins by gamma counting; assay type: ADME, organism-based, CCRF S-180; conditions: in vivo, 2 h
[12] = test system: Muscle tissue; test: Biodistribution in mouse S180 cells xenografted Kunming mouse muscle at 370 kBq/0.1 mL, iv after 5 mins by gamma counting; assay type: ADME, organism-based, CCRF S-180; conditions: in vivo
[13] = test system: Brain; test: Biodistribution in mouse S180 cells xenografted Kunming mouse brain at 370 kBq/0.1 mL, iv after 30 mins by gamma counting; assay type: ADME, organism-based, CCRF S-180; conditions: in vivo, 0.5 h
[14] = test system: Brain; test: Biodistribution in mouse S180 cells xenografted Kunming mouse brain at 370 kBq/0.1 mL, iv after 5 mins by gamma counting; assay type: ADME, organism-based, CCRF S-180; conditions: in vivo
[15] = test system: Spleen; test: Biodistribution in mouse S180 cells xenografted Kunming mouse spleen at 370 kBq/0.1 mL, iv after 30 mins by gamma counting; assay type: ADME, organism-based, CCRF S-180; conditions: in vivo, 0.5 h
[16] = test system: Lung; test: Biodistribution in mouse S180 cells xenografted Kunming mouse lung at 370 kBq/0.1 mL, iv after 5 mins by gamma counting; assay type: ADME, organism-based, CCRF S-180; conditions: in vivo
[17] = test system: Blood; test: Biodistribution in mouse S180 cells xenografted Kunming mouse blood at 370 kBq/0.1 mL, iv after 30 mins by gamma counting; assay type: ADME, organism-based, CCRF S-180; conditions: in vivo, 0.5 h
[18] = test system: Kidney; test: Biodistribution in mouse S180 cells xenografted Kunming mouse kidney at 370 kBq/0.1 mL, iv after 30 mins by gamma counting; assay type: ADME, organism-based, CCRF S-180; conditions: in vivo, 0.5 h
[19] = test system: Mus musculus; test: Biodistribution in mouse S180 cells xenografted Kunming mouse tumor at 370 kBq/0.1 mL, iv after 5 mins by gamma counting; assay type: ADME, organism-based, Neoplasm, CCRF S-180; conditions: in vivo
[20] = test system: Nucleic Acid; test: Ratio of drug level in tumor to brain in mouse S180 cells xenografted Kunming mouse at 370 kBq/0.1 mL, iv after 30 mins by gamma counting; assay type: ADME, organism-based, CCRF S-180; conditions: in vivo, 0.5 h
[21] = test system: Heart; test: Biodistribution in mouse S180 cells xenografted Kunming mouse heart at 370 kBq/0.1 mL, iv after 5 mins by gamma counting; assay type: ADME, organism-based, CCRF S-180; conditions: in vivo
[22] = Partition coefficient, log P of the compound; assay type: physicochemical; conditions: octanol/water
[23] = test system: Lung; test: Biodistribution in mouse S180 cells xenografted Kunming mouse lung at 370 kBq/0.1 mL, iv after 120 mins by gamma counting; assay type: ADME, organism-based, CCRF S-180; conditions: in vivo, 2 h
[24] = test system: Mus musculus; test: Biodistribution in mouse S180 cells xenografted Kunming mouse tumor at 370 kBq/0.1 mL, iv after 30 mins by gamma counting; assay type: ADME, organism-based, Neoplasm, CCRF S-180; conditions: in vivo, 0.5 h
[25] = test system: Muscle tissue; test: Biodistribution in mouse S180 cells xenografted Kunming mouse muscle at 370 kBq/0.1 mL, iv after 30 mins by gamma counting; assay type: ADME, organism-based, CCRF S-180; conditions: in vivo, 0.5 h
[26] = test system: Kidney; test: Biodistribution in mouse S180 cells xenografted Kunming mouse kidney at 370 kBq/0.1 mL, iv after 60 mins by gamma counting; assay type: ADME, organism-based, CCRF S-180; conditions: in vivo, 1 h
[27] = test system: Lung; test: Biodistribution in mouse S180 cells xenografted Kunming mouse lung at 370 kBq/0.1 mL, iv after 30 mins by gamma counting; assay type: ADME, organism-based, CCRF S-180; conditions: in vivo, 0.5 h
[28] = test system: Muscle tissue; test: Biodistribution in mouse S180 cells xenografted Kunming mouse muscle at 370 kBq/0.1 mL, iv after 15 mins by gamma counting; assay type: ADME, organism-based, CCRF S-180; conditions: in vivo, 0.25 h
[29] = test system: Kidney; test: Biodistribution in mouse S180 cells xenografted Kunming mouse kidney at 370 kBq/0.1 mL, iv after 15 mins by gamma counting; assay type: ADME, organism-based, CCRF S-180; conditions: in vivo, 0.25 h
[30] = test system: Lung; test: Biodistribution in mouse S180 cells xenografted Kunming mouse lung at 370 kBq/0.1 mL, iv after 15 mins by gamma counting; assay type: ADME, organism-based, CCRF S-180; conditions: in vivo, 0.25 h
[31] = test system: Nucleic Acid; test: Ratio of drug level in tumor to muscle in mouse S180 cells xenografted Kunming mouse at 370 kBq/0.1 mL, iv after 15 mins by gamma counting; assay type: ADME, organism-based, CCRF S-180; conditions: in vivo, 0.25 h
[32] = test system: Liver; test: Biodistribution in mouse S180 cells xenografted Kunming mouse liver at 370 kBq/0.1 mL, iv after 15 mins by gamma counting; assay type: ADME, organism-based, CCRF S-180; conditions: in vivo, 0.25 h
[33] = test system: Nucleic Acid; test: Ratio of drug level in tumor to blood in mouse S180 cells xenografted Kunming mouse at 370 kBq/0.1 mL, iv after 15 mins by gamma counting; assay type: ADME, organism-based, CCRF S-180; conditions: tumour, 0.25 h
[34] = test system: Nucleic Acid; test: Ratio of drug level in tumor to blood in mouse S180 cells xenografted Kunming mouse at 370 kBq/0.1 mL, iv after 120 mins by gamma counting; assay type: ADME, organism-based, CCRF S-180; conditions: tumour, 2 h
[35] = test system: Spleen; test: Biodistribution in mouse S180 cells xenografted Kunming mouse spleen at 370 kBq/0.1 mL, iv after 15 mins by gamma counting; assay type: ADME, organism-based, CCRF S-180; conditions: in vivo, 0.25 h
[36] = test system: Heart; test: Biodistribution in mouse S180 cells xenografted Kunming mouse heart at 370 kBq/0.1 mL, iv after 60 mins by gamma counting; assay type: ADME, organism-based, CCRF S-180; conditions: in vivo, 1 h
[37] = test system: Blood; test: Biodistribution in mouse S180 cells xenografted Kunming mouse blood at 370 kBq/0.1 mL, iv after 120 mins by gamma counting; assay type: ADME, organism-based, CCRF S-180; conditions: in vivo, 2 h
[38] = test system: Liver; test: Biodistribution in mouse S180 cells xenografted Kunming mouse liver at 370 kBq/0.1 mL, iv after 30 mins by gamma counting; assay type: ADME, organism-based, CCRF S-180; conditions: in vivo, 0.5 h
[39] = test system: Spleen; test: Biodistribution in mouse S180 cells xenografted Kunming mouse spleen at 370 kBq/0.1 mL, iv after 120 mins by gamma counting; assay type: ADME, organism-based, CCRF S-180; conditions: in vivo, 2 h
[40] = test system: Heart; test: Biodistribution in mouse S180 cells xenografted Kunming mouse heart at 370 kBq/0.1 mL, iv after 30 mins by gamma counting; assay type: ADME, organism-based, CCRF S-180; conditions: in vivo, 0.5 h
[41] = test system: Nucleic Acid; test: Ratio of drug level in tumor to brain in mouse S180 cells xenografted Kunming mouse at 370 kBq/0.1 mL, iv after 120 mins by gamma counting; assay type: ADME, organism-based, CCRF S-180; conditions: in vivo, 2 h
[42] = test system: Heart; test: Biodistribution in mouse S180 cells xenografted Kunming mouse heart at 370 kBq/0.1 mL, iv after 120 mins by gamma counting; assay type: ADME, organism-based, CCRF S-180; conditions: in vivo, 2 h
[43] = test system: Brain; test: Biodistribution in mouse S180 cells xenografted Kunming mouse brain at 370 kBq/0.1 mL, iv after 60 mins by gamma counting; assay type: ADME, organism-based, CCRF S-180; conditions: in vivo, 1 h

- Drug uptake [1]: 0.21 % ID/g
- Drug uptake [2]: 2.5 % ID/g
- Ratio [3]: 0.88
- Drug uptake [4]: 17.9 % ID/g
- Drug uptake [5]: 0.28 % ID/g
- Ratio [6]: 1.66
- Stability [7]: Stable
- Ratio [8]: 0.59
- Ratio [9]: 12.35
- Drug uptake [10]: 2.05 % ID/g
- Drug uptake [11]: 0.74 % ID/g
- Drug uptake [12]: 3.82 % ID/g
- Drug uptake [13]: 0.12 % ID/g
- Drug uptake [14]: 0.38 % ID/g
- Drug uptake [15]: 0.99 % ID/g
- Drug uptake [16]: 5.6 % ID/g
- Drug uptake [17]: 1.42 % ID/g
- Drug uptake [18]: 5.63 % ID/g
- Drug uptake [19]: 2.26 % ID/g
- Ratio [20]: 10.44
- Drug uptake [21]: 5.77 % ID/g
- logP [22]: 0.69
- Drug uptake [23]: 0.19 % ID/g
- Drug uptake [24]: 1.24 % ID/g
- Drug uptake [25]: 0.89 % ID/g
- Drug uptake [26]: 1.83 % ID/g
- Drug uptake [27]: 1.19 % ID/g
- Drug uptake [28]: 2.07 % ID/g
- Drug uptake [29]: 8.45 % ID/g
- Drug uptake [30]: 2.6 % ID/g
- Ratio [31]: 0.96
- Drug uptake [32]: 10.12 % ID/g
- Ratio [33]: 0.8
- Ratio [34]: 2.5
- Drug uptake [35]: 1.96 % ID/g
- Drug uptake [36]: 0.63 % ID/g
- Drug uptake [37]: 0.09 % ID/g
- Drug uptake [38]: 7.3 % ID/g
- Drug uptake [39]: 0.14 % ID/g
- Drug uptake [40]: 1.16 % ID/g
- Ratio [41]: 5.13
- Drug uptake [42]: 0.12 % ID/g
- Drug uptake [43]: 0.08 % ID/g
SMILES: Cc1cc(NCCNC(=O)c2ccc([N+](=O)[O-])cc2[18F])n2ncc(C#N)c2n1
